Laboratory results published in ChEMBL document CHEMBL1157833, “Serotonin derivatives as a new class of non-ATP-competitive receptor tyrosine kinase inhibitors” (Bioorg Med Chem, 2010).

Experiments:
[1] = target: T1, Epidermal growth factor receptor (Homo sapiens, UniProt P00533); test: Inhibition of EGFR after 30 mins by chemiluminescence ELISA
[2] = target: T2, Insulin-like growth factor 1 receptor (Homo sapiens, UniProt P08069); test: Inhibition of IGF1R after 30 mins by chemiluminescence ELISA
T2 sequence (P08069 31-736 limits assumed): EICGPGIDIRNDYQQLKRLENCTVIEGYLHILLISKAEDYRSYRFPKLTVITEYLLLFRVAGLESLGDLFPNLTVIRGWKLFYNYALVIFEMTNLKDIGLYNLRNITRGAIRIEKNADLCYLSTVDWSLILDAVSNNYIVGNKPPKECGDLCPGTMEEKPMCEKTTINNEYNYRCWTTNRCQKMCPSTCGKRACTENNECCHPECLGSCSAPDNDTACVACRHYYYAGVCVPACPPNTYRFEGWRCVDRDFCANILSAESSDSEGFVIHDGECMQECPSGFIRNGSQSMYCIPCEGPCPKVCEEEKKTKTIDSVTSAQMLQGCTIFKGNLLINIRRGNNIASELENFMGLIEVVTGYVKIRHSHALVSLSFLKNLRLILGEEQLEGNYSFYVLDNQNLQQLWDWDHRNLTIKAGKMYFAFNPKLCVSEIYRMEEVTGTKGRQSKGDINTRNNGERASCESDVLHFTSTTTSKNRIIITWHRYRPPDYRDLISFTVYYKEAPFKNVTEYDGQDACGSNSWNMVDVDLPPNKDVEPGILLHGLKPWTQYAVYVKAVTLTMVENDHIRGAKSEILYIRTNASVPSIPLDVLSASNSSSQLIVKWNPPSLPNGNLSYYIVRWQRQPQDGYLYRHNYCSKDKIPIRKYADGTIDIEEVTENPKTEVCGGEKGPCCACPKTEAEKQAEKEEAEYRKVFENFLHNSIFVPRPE
T2 sequence (P08069 741-1367 limits assumed): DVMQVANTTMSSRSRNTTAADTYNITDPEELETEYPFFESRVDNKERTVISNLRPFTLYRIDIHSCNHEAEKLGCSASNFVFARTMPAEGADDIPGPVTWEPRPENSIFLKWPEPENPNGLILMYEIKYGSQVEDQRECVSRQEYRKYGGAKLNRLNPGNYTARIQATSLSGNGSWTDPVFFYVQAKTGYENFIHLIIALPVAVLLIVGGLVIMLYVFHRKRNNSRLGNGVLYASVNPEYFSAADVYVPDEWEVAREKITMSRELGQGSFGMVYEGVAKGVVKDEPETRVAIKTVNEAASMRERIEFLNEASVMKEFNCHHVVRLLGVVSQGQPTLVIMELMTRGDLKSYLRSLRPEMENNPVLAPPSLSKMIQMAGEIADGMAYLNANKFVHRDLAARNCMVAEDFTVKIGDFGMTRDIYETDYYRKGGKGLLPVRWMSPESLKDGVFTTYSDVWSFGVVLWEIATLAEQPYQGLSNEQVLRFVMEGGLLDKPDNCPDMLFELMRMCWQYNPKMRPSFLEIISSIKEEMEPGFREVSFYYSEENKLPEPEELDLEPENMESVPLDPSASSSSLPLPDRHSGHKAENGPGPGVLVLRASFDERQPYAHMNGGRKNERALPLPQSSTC

[3] = target: T3, Vascular endothelial growth factor receptor 2 (Homo sapiens, UniProt P35968); test: Inhibition of VEGFR2 after 30 mins by chemiluminescence ELISA
T3 sequence (P35968 whole entry): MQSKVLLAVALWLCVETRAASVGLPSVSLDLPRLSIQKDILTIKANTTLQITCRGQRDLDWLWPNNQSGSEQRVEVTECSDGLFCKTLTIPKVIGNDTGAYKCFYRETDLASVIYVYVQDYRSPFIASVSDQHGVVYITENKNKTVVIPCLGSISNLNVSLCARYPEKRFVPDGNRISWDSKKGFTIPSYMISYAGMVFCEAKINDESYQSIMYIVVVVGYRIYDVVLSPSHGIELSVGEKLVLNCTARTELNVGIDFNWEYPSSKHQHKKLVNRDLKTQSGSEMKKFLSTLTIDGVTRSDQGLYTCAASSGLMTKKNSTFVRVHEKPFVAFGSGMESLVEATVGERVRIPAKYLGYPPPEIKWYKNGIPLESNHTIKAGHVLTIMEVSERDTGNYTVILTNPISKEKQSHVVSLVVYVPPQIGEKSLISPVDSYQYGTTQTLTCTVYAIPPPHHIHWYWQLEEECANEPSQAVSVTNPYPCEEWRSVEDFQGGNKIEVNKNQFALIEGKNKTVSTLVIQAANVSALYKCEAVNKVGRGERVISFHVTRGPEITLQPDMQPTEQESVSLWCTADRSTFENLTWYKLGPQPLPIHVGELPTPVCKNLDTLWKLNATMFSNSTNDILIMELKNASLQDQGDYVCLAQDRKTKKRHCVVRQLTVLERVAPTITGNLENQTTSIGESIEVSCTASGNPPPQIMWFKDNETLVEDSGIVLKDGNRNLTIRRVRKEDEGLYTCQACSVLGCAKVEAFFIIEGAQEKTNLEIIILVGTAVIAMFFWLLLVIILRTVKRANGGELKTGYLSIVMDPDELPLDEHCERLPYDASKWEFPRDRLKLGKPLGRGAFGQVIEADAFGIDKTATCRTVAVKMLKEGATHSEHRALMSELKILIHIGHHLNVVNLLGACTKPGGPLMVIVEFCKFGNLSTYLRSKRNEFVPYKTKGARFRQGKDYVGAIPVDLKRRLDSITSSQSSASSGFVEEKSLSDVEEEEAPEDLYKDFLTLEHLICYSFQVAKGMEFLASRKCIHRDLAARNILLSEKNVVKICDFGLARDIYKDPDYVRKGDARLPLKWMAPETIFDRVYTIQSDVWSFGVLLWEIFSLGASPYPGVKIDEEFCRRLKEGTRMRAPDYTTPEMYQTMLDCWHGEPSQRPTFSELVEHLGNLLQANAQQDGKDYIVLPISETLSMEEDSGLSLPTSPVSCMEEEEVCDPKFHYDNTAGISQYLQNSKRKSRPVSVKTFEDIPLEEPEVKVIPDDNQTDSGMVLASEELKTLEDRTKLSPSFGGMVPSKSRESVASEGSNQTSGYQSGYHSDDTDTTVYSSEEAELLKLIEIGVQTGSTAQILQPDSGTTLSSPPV

[4] = target: T4, Vascular endothelial growth factor receptor 3 (Homo sapiens, UniProt P35916); test: Inhibition of VEGFR3 after 30 mins by chemiluminescence ELISA
T4 sequence (P35916 whole entry): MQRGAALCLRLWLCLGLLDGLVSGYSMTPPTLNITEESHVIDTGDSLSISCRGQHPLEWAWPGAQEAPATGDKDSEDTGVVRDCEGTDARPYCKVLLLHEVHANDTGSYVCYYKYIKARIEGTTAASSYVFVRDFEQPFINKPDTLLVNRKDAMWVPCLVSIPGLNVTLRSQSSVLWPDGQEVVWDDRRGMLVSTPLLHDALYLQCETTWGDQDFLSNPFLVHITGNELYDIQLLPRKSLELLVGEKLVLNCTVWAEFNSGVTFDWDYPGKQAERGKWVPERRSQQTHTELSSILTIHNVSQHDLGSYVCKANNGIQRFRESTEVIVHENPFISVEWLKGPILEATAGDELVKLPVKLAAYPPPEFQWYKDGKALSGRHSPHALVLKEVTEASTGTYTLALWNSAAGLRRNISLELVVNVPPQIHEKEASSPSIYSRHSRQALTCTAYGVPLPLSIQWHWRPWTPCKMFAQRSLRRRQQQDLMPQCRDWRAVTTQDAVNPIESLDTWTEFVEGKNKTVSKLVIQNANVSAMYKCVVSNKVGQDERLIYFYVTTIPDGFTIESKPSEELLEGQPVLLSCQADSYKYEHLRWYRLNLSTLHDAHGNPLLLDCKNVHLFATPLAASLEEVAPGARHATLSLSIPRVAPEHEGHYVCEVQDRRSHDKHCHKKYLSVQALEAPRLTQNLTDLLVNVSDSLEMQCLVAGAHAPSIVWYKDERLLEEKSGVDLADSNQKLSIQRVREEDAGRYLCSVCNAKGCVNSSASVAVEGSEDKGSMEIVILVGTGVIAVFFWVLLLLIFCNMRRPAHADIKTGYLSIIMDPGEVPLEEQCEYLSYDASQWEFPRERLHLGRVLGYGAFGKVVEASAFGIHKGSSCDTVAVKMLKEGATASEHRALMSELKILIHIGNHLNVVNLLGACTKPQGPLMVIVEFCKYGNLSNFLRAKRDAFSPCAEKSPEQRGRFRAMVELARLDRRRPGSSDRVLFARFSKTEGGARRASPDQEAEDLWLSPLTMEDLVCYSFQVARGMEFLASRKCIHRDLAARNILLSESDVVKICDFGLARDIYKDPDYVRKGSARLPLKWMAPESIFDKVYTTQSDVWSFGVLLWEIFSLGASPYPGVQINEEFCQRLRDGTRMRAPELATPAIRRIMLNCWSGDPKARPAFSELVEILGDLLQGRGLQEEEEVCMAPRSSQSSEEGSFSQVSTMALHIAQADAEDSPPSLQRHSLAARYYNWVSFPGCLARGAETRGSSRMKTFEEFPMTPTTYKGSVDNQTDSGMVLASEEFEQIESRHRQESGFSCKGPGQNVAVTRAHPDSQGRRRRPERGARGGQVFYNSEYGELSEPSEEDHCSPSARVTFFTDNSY

[5] = target: T2, Insulin-like growth factor 1 receptor; test: Noncompetitive inhibition of IGF1R after 30 mins by chemiluminescence ELISA in presence of 25 uM ATP
[6] = target: T2, Insulin-like growth factor 1 receptor; test: Noncompetitive inhibition of IGF1R after 30 mins by chemiluminescence ELISA in presence of 50 uM ATP
[7] = target: T2, Insulin-like growth factor 1 receptor; test: Noncompetitive inhibition of IGF1R after 30 mins by chemiluminescence ELISA in presence of 250 uM ATP
[8] = target: T3, Vascular endothelial growth factor receptor 2; test: Noncompetitive inhibition of VEGFR2 after 30 mins by chemiluminescence ELISA in presence of 25 uM ATP
[9] = target: T3, Vascular endothelial growth factor receptor 2; test: Noncompetitive inhibition of VEGFR2 after 30 mins by chemiluminescence ELISA in presence of 50 uM ATP
[10] = target: T3, Vascular endothelial growth factor receptor 2; test: Noncompetitive inhibition of VEGFR2 after 30 mins by chemiluminescence ELISA in presence of 250 uM ATP
[11] = target: T4, Vascular endothelial growth factor receptor 3; test: Noncompetitive inhibition of VEGFR3 after 30 mins by chemiluminescence ELISA in presence of 25 uM ATP
[12] = target: T4, Vascular endothelial growth factor receptor 3; test: Noncompetitive inhibition of VEGFR3 after 30 mins by chemiluminescence ELISA in presence of 50 uM ATP
[13] = target: T4, Vascular endothelial growth factor receptor 3; test: Noncompetitive inhibition of VEGFR3 after 30 mins by chemiluminescence ELISA in presence of 250 uM ATP
HUVEC [14] = test: Antiproliferative activity against HUVEC assessed as BrdU incorporation into mitotic active cells after 24 hrs by luminometry; type: cell-based; conditions: Homo sapiens
HUVEC [15] = test: Cytotoxicity against HUVEC after 24 hrs by WST1 assay; type: cell-based; conditions: Homo sapiens
MCF7 [16] = test: Antiproliferative activity against human MCF7 cells assessed as BrdU incorporation into mitotic active cells after 24 hrs by luminometry; type: functional, cell-based; conditions: MCF7, 24 h
MCF7 [17] = test: Cytotoxicity against human MCF7 cells after 24 hrs by WST1 assay; type: functional, cell-based; conditions: MCF7, 24 h
[18] = Antiproliferative activity against HEPM cells assessed as BrdU incorporation into mitotic active cells after 24 hrs by luminometry; type: cell-based; conditions: Homo sapiens
[19] = Cytotoxicity against HEPM cells after 24 hrs by WST1 assay; type: cell-based; conditions: Homo sapiens
HT-29 [20] = test: Antiproliferative activity against human HT-29 cells assessed as BrdU incorporation into mitotic active cells after 24 hrs by luminometry; type: functional, cell-based; conditions: HT-29, 24 h
HT-29 [21] = test: Cytotoxicity against human HT-29 cells after 24 hrs by WST1 assay; type: functional, cell-based; conditions: HT-29, 24 h
[22] = target: T1, Epidermal growth factor receptor
Description: Noncompetitive inhibition of EGFR after 30 mins by chemiluminescence ELISA in presence of 25 uM ATP

[23] = target: T1, Epidermal growth factor receptor; remark: listed apart in the source
Description: Noncompetitive inhibition of EGFR after 30 mins by chemiluminescence ELISA in presence of 50 uM ATP

[24] = target: T1, Epidermal growth factor receptor; remark: listed apart in the source
Description: Noncompetitive inhibition of EGFR after 30 mins by chemiluminescence ELISA in presence of 250 uM ATP

NCCc1cn(Cc2ccc(-c3cccc(C(F)(F)F)c3)cc2)c2ccc(OCCc3ccc(O)cc3)cc12
IC50 [1]: 1110 nM | IC50 [2]: 1070 nM | IC50 [3]: 1560 nM | IC50 [4]: 3010 nM | IC50 [5]: 1070 nM | IC50 [6]: 1060 nM | IC50 [7]: 1020 nM | IC50 [8]: 1560 nM | IC50 [9]: 1480 nM | IC50 [10]: 1500 nM | IC50 [11]: 3010 nM | IC50 [12]: 2980 nM | IC50 [13]: 3080 nM | IC50 (HUVEC [14]): 1980 nM | IC50 (HUVEC [15]): 6.32 µM | IC50 (MCF7 [16]): 3.57 µM | IC50 (MCF7 [17]): 3.34 µM | IC50 [18]: 2740 nM | IC50 [19]: 6.64 µM | IC50 (HT-29 [20]): 4.38 µM | IC50 (HT-29 [21]): 7.95 µM | IC50 [22]: 1110 nM | IC50 [23]: 1120 nM | IC50 [24]: 1060 nM

CN(C)c1ccc(CCCCCn2c3c(c4cc(OCCc5ccc(O)cc5)ccc42)CC(N)CC3)cc1 (configuration not stated)
IC50 [1]: 1910 nM | IC50 [4]: 1660 nM

NCCc1cn(CCCCCc2ccccc2)c2ccc(OCCc3ccc(O)cc3)cc12
IC50 [1]: 1630 nM | IC50 [2]: 2960 nM | IC50 [3]: 2830 nM | IC50 [4]: 2680 nM

NCCc1c[nH]c2ccc(OCCc3ccc(O)cc3)cc12
IC50 [1]: 2070 nM | IC50 [2]: 1780 nM | IC50 [3]: 2030 nM | IC50 [4]: 2640 nM

NC1CCc2c(c3cc(OCCc4ccc(O)cc4)ccc3n2CCCc2ccccc2)C1 (configuration not stated)
IC50 [1]: 2500 nM | IC50 [2]: 1330 nM | IC50 [3]: 2070 nM | IC50 [4]: 2850 nM

NC1CCc2c(c3cc(OCCc4ccc(O)cc4)ccc3n2CCCCCc2ccccn2)C1 (configuration not stated)
IC50 [2]: 2800 nM | IC50 [3]: 2120 nM

NC1CCc2c(c3cc(OCCc4ccc(O)cc4)ccc3n2CCCCCc2ccccc2)C1 (configuration not stated)
IC50 [1]: 1010 nM | IC50 [2]: 930 nM | IC50 [3]: 1060 nM | IC50 [4]: 2170 nM | IC50 [5]: 930 nM | IC50 [6]: 990 nM | IC50 [7]: 1220 nM | IC50 [8]: 1060 nM | IC50 [9]: 1090 nM | IC50 [10]: 1040 nM | IC50 [11]: 2170 nM | IC50 [12]: 2110 nM | IC50 [13]: 2190 nM | IC50 (HUVEC [14]): 1380 nM | IC50 (HUVEC [15]): 5.04 µM | IC50 (MCF7 [16]): 3.85 µM | IC50 (MCF7 [17]): 4.79 µM | IC50 [18]: 2250 nM | IC50 [19]: 7.76 µM | IC50 (HT-29 [20]): 3.81 µM | IC50 (HT-29 [21]): 11 µM | IC50 [22]: 1010 nM | IC50 [23]: 980 nM | IC50 [24]: 1000 nM

COc1ccc(CCCCCn2cc(CCN)c3cc(OCCc4ccc(O)cc4)ccc32)cc1
IC50 [1]: 4400 nM | IC50 [2]: 3210 nM | IC50 [3]: 2170 nM | IC50 [4]: 2050 nM

NC1CCc2c(c3cc(OCCc4ccc(O)cc4)ccc3n2CCCCCc2ccc(C(F)(F)F)cc2)C1 (configuration not stated)
IC50 [1]: 2750 nM | IC50 [2]: 5150 nM | IC50 [3]: 2180 nM | IC50 [4]: 2270 nM
